Results reported in patent US7635572B2, “Methods for conducting assays for enzyme activity on protein microarrays” (Life Technologies Corporation, priority 2004, dated 2009).

Columns and labels:
Experiment in all cases: Further analysis of a plurality of inhibitors and a plurality of kinases on microarray (Example IX, Table 5);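 further: inhibition of each kinase by the inhibitors is given as a qualitative level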;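 on Inhibition level, Homo sapiens in: level 0 none or unclear Level 1 marginal Level 2 substantial inhibition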;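 on Inhibition level, Homo sapiens, o: level 0 none or unclear Level 1 marginal Level 2 substantial inhibition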;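 on Inhibition level, ITK: level 0 none or unclear then 1 little or marginal then 2 substantial inhibition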;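 on Inhibition level, PRKCI: level 0 none or unclear Level 1 marginal Level 2 substantial inhibition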;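 on Inhibition level, TBK1: level 0 no or unclear inhibition to Level 2 substantial inhibition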
Type in all cases: biochemical
[1] = molecular target: plurality of kinases (Table 5) (Homo sapiens, UniProt O75914); conditions: plate D4
Chain of plurality of kinases (Table 5) (Homo sapiens, UniProt O75914) (O75914 whole entry): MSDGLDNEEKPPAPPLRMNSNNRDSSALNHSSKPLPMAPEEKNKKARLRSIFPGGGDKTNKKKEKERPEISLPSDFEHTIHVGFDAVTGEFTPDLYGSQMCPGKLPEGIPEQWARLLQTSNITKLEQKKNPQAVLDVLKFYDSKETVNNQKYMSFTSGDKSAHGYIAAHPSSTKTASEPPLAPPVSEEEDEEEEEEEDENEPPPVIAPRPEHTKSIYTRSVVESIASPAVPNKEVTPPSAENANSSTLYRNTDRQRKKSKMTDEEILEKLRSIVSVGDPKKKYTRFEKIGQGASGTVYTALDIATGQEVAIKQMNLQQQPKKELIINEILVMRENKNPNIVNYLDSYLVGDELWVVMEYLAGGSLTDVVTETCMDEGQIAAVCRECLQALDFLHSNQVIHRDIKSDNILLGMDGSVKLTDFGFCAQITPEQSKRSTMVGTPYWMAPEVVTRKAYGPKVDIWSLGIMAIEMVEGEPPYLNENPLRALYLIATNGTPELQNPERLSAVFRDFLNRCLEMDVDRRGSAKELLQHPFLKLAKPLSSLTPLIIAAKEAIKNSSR

[2] = molecular target: plurality of kinases (Table 5) (Homo sapiens, UniProt P07949); conditions: plate B7
Chain of plurality of kinases (Table 5) (Homo sapiens, UniProt P07949) (P07949 29-1114): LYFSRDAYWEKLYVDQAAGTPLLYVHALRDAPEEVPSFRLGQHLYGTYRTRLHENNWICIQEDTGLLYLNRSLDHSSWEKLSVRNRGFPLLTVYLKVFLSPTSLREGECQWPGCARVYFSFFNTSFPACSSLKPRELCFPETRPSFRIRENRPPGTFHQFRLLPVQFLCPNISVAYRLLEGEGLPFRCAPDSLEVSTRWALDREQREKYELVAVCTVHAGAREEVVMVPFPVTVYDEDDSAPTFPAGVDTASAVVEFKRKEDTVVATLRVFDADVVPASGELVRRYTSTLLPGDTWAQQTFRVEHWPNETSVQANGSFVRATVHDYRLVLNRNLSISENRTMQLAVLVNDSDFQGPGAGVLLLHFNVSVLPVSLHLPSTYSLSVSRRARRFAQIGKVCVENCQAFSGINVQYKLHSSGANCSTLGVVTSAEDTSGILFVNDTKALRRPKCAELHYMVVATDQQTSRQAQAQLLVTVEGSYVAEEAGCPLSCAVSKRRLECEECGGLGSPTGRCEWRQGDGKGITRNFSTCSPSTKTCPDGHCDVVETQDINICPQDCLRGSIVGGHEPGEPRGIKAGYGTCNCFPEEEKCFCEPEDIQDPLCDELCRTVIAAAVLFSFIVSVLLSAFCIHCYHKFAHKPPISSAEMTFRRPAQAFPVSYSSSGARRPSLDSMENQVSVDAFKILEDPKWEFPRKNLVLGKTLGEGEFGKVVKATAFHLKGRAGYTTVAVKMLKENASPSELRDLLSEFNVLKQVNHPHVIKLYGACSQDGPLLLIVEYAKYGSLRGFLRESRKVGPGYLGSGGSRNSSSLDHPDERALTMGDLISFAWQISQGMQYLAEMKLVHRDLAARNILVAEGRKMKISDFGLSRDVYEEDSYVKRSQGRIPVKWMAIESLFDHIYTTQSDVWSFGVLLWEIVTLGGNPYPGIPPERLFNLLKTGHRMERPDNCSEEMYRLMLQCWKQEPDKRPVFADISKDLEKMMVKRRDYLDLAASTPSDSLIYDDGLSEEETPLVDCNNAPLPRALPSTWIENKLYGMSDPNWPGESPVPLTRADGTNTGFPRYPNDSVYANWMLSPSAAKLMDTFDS

[3] = molecular target: plurality of kinases (Table 5) (Homo sapiens, UniProt P24723); conditions: plate B3
Chain of plurality of kinases (Table 5) (Homo sapiens, UniProt P24723) (P24723 whole entry): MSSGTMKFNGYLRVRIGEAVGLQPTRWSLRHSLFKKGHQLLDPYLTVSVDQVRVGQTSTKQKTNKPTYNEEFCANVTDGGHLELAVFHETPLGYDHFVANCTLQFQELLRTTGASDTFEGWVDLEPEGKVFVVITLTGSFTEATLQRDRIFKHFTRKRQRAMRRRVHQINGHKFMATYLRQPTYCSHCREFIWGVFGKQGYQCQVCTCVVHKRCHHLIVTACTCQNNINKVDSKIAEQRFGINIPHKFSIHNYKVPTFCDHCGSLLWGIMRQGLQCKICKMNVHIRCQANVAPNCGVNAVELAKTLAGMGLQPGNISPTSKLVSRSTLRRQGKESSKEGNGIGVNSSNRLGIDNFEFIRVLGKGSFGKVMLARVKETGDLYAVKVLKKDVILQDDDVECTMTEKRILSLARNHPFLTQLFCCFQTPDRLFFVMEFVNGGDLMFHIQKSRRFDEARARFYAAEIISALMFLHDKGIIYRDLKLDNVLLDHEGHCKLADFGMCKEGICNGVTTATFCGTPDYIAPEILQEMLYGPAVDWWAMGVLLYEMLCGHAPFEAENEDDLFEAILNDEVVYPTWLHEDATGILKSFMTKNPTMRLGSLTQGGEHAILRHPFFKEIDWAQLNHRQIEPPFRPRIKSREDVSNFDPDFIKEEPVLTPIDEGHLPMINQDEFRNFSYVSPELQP

[4] = molecular target: T1, plurality of kinases (Table 5) (Homo sapiens, UniProt Q9UHD2); conditions: plate G1; inhibitor 100 uM
T1 sequence (Q9UHD2 1-729): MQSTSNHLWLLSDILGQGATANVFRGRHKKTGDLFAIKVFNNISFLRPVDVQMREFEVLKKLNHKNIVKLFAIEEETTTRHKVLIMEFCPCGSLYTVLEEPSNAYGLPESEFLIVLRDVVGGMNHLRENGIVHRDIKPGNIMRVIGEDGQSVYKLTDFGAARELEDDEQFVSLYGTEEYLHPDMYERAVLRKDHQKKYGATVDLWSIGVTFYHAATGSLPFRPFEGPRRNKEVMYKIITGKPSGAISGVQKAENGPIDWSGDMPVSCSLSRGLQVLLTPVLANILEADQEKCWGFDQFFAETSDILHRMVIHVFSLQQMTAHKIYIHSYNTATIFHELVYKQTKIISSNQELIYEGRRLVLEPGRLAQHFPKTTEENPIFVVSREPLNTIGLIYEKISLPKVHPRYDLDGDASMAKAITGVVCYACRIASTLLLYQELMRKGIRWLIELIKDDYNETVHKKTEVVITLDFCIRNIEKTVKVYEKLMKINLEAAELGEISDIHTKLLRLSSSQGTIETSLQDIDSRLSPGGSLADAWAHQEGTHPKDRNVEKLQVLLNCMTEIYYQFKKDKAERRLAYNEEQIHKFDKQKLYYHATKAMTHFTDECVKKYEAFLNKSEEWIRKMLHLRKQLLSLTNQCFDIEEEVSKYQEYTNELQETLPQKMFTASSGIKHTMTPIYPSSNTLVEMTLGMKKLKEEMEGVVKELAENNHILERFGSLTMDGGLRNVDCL

[5] = test system: plurality of kinases (Table 5); conditions: for Inhibition level, Homo sapiens c: plate F4; for Inhibition level, Homo sapiens, o: plate F5; for Inhibition level, Homo sapiens, B: plate F7; for Inhibition level, Homo sapiens in: plate F9; for Inhibition level, Homo sapiens p: plate F10
[6] = molecular target: plurality of kinases (Table 5) (Homo sapiens, UniProt P06239); conditions: plate A6
Chain of plurality of kinases (Table 5) (Homo sapiens, UniProt P06239) (P06239 whole entry): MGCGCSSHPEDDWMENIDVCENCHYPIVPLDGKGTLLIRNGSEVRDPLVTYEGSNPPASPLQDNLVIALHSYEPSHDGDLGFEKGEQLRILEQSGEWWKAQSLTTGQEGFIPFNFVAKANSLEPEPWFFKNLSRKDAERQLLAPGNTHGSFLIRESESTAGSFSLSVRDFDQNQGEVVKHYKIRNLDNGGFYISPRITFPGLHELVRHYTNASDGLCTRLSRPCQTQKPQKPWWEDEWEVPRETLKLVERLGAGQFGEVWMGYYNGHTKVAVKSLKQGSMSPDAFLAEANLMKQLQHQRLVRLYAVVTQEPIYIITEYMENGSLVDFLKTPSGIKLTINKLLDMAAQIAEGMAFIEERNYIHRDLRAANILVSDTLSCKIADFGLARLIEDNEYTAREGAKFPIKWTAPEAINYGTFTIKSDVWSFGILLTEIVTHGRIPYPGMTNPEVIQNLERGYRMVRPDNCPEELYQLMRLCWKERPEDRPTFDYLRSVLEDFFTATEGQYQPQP

[7] = molecular target: T2, plurality of kinases (Table 5) (Homo sapiens, UniProt P41743); conditions: plate A2
T2 sequence (P41743 1-596): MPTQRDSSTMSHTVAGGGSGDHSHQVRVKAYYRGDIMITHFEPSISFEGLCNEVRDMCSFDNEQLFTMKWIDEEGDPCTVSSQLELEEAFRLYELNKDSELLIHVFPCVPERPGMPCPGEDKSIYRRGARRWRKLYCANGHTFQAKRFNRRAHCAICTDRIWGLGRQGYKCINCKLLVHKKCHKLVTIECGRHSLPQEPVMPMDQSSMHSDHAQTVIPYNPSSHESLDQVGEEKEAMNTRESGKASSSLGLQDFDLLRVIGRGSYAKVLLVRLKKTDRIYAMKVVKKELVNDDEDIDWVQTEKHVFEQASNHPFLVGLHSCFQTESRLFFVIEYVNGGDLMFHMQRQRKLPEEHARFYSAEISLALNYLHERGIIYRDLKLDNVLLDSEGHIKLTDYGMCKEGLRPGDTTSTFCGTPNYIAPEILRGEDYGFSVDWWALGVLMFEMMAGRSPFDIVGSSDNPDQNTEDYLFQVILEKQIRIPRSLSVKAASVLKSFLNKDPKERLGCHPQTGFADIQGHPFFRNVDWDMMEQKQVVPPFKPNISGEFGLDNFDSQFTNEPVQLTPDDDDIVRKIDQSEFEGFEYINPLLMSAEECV

[8] = molecular target: T3, plurality of kinases (Table 5) (Homo sapiens, UniProt Q08881); conditions: plate E4; inhibitor 100 uM
T3 sequence (Q08881 1-620): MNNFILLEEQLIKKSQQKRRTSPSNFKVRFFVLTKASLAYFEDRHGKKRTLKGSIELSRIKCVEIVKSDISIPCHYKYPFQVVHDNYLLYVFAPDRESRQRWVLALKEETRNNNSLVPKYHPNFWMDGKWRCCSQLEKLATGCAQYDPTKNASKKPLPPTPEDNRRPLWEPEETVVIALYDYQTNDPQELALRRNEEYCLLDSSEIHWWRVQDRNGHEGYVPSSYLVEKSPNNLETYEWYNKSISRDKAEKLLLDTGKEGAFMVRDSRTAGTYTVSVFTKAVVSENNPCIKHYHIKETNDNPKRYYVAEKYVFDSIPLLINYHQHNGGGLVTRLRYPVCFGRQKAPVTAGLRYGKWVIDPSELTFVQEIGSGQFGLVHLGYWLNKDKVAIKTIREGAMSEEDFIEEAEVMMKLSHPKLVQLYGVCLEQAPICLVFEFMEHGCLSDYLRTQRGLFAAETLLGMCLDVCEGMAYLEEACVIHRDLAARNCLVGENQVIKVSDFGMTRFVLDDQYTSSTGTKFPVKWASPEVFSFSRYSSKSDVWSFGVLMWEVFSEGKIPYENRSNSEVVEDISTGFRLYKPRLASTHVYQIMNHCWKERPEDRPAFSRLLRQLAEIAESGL

[9] = molecular target: plurality of kinases (Table 5) (Homo sapiens, UniProt P07948); conditions: plate A5, Domain 0
Chain of plurality of kinases (Table 5) (Homo sapiens, UniProt P07948) (P07948 whole entry): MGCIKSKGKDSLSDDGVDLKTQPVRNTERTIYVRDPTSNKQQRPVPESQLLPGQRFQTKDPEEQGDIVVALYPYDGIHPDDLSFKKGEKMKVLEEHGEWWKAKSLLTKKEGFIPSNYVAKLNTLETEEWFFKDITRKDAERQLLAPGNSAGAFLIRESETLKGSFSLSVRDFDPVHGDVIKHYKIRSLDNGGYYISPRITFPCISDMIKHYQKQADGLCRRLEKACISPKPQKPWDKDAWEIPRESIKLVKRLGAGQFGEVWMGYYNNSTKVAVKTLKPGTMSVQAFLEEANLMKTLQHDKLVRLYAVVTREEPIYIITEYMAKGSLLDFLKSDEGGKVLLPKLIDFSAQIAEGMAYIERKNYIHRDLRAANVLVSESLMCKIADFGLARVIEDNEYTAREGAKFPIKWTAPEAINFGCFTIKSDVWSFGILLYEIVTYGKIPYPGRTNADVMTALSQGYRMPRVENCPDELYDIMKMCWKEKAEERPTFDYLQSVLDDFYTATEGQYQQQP

Compound	Inhibition level, PAK3 ([1]; inhibitor 100 uM)	Inhibition level, RET ([2]; inhibitor 100 uM)	Inhibition level, PRKCH ([3]; inhibitor 100 uM)	Inhibition level, TBK1 [4]	Inhibition level, Homo sapiens, S ([5]; plate E9, inhibitor 100 uM)	Inhibition level, Homo sapiens, s ([5]; plate E11, inhibitor 100 uM)	Inhibition level, Homo sapiens, s ([5]; plate F3, inhibitor 100 uM)	Inhibition level, Homo sapiens c ([5]; inhibitor 100 uM)	Inhibition level, Homo sapiens, o ([5]; inhibitor 100 uM)	Inhibition level, Homo sapiens, S ([5]; plate F6, inhibitor 100 uM)	Inhibition level, Homo sapiens, B ([5]; inhibitor 100 uM)	Inhibition level, Homo sapiens, s ([5]; plate F8, inhibitor 100 uM)	Inhibition level, Homo sapiens in ([5]; inhibitor 100 uM)	Inhibition level, Homo sapiens p ([5]; inhibitor 100 uM)	Inhibition level, LCK ([6]; inhibitor 100 uM)	Inhibition level, PRKCI ([7]; inhibitor 100 uM)	Inhibition level, ITK [8]	Inhibition level, LYN ([9]; inhibitor 100 uM)	further results
Cn1cc(C2=C(c3cn(CCCSC(=N)N)c4ccccc34)C(=O)NC2=O)c2ccccc21 [Ro-31-8220]	2	0	2	2	0	2	2	2	2	2	0	0	0	2	2	0	2	2	Inhibition level, PAK3 ([1]; Ro-31-8220, conc. not given): 2; Inhibition level, RET ([2]; Ro-31-8220, conc. not given): 2; Inhibition level, PRKCH ([3]; Ro-31-8220, conc. not given): 2; Inhibition level, Homo sapiens, s ([5]; plate F3, Ro-31-8220, conc. not given): 2; Inhibition level, Homo sapiens, o ([5]; Ro-31-8220, conc. not given): 0; Inhibition level, Homo sapiens, S ([5]; plate F6, Ro-31-8220, conc. not given): 0; Inhibition level, Homo sapiens, B ([5]; Ro-31-8220, conc. not given): 2; Inhibition level, Homo sapiens, s ([5]; plate F8, Ro-31-8220, conc. not given): 2; Inhibition level, Homo sapiens in ([5]; Ro-31-8220, conc. not given): 2; Inhibition level, Homo sapiens p ([5]; Ro-31-8220, conc. not given): 2; Inhibition level, LCK ([6]; Ro-31-8220 90 uM): 0; Inhibition level, PRKCI ([7]; Ro-31-8220 90 uM): 2; Inhibition level, LYN ([9]; Ro-31-8220 90 uM): 0
CC(=O)c1c(O)c(C)c(O)c(Cc2c(O)c3c(c(C(=O)/C=C/c4ccccc4)c2O)OC(C)(C)C=C3)c1O [Rottlerin (Mallotoxin)]	0	0	2	1	2	2	0	0	0	0	2	0	0	2	2	2	1	2	–
